Columns and labels:
[1] = cited from earlier work
[2] = tested on: mixture of Actinomyces viscosus, Lactobacillus casei, Streptococcus oralis, Fusobacterium nucleatum, and Veillnoella parvula; assay: Zinc/copper bioavailability assay: bacterial viability by resazurin fluorescence, oral bacterial mixture
Experimental: (This bacterial mixture simulates the complex flora of the oral environment.) Subsequently, the cells were washed and mixed with 5 μg/ml resazurin solution. The fluorescence of the samples was read at 560 nm excitation and at 590 nm emission, and compared to standardized mixtures of viable and non-viable bacteria in order to determine the percentage of the total bacterial population that remained viable after treatment. Each salt was tested at two different concentrations of zinc. The total amount of zinc was consistent between the different salts.
The amount of soluble zinc in each solution was also determined by centrifuging the solutions to remove insoluble zinc, and by testing the supernatant using ICP-AA (inductively coupled plasma with atomic absorption).

[3] = tested on: mixture of Escherichia coli (45%), Staphylococcus aureus (45%) and Serratia marcescens (10%); assay: Zinc bioavailability assay: bacterial viability by resazurin fluorescence, skin bacterial mixture; format: cell-based; conditions: Table 5; 0.4% ZnO, 0.8% Zn Citrate, or mix, in deionized water; Triclosan positive control
Experimental: The incubation and detection methods used were as described in Example 1. […] Triclosan was used as a positive antimicrobial control for the experiment.

[4] = Table 6, 0.5% elemental copper in deionized water
[5] = Table 7, 0.05% elemental copper in deionized water

Compound	theoretical solubility in water [1]	% viable [2, 4] [%]	% viable [2, 5] [%]	% viable [3] [%]	% viable ([2]; Table 2, zinc salt solution without added citrate) [%]
[Cl][Cu][Cl] [CuCl2]	75.7 g/100 ml	1.89	11.99	–	–
[F][Cu][F] [CuF2]	–	–	17.82	–	–
[O]=[Cu] [CuO]	–	42.73	78.67	–	–
O=S(=O)([O-])[O-].[Cu+2] [CuSO4]	20 g/100 ml	5.82	13.98	–	–
Oc1cc(Cl)ccc1Oc1ccc(Cl)cc1Cl [Triclosan, reference compound]	–	–	–	18.83	–
[O]=[Zn] [ZnO, zinc oxide]	–	–	–	67.23	23.75
Cu2O	insoluble	–	–	–	–

Source: patent US10563243B2, “Bioavailability of metal ions” (priority 2014, dated 2020)
